Key:
WI-38 cells [1] = details: read-out: Est. ED50; dose response 0.6-20 μM; H2O2-resistance
WI-38 cells [2] = assay: Long-term effects on cell viability (5 days, ATP; morphology, PI imaging); assay type: cell-based; details: 10 μM; for Luminescence signal for ATP measurement, day-1 Average / Luminescence signal for ATP measurement, day-2 Average / Luminescence signal for ATP measurement, day-3 Average / Luminescence signal for ATP measurement, day-4 Average / Luminescence signal for ATP measurement, day-5 Average: n = 6; for ATP luminescence by day-5 normalized: DMSO ctrl = 100.0%;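 on Luminescence signal for ATP measurement, day-2 Average: compounds at 10 µM with ATP read daily over 5 days of treatment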;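 on Luminescence signal for ATP measurement, day-3 Average: compounds at 10 µM with ATP read daily over 5 days of treatment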;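 on Luminescence signal for ATP measurement, day-4 Average: compounds at 10 µM with ATP read daily over 5 days of treatment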;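 on Luminescence signal for ATP measurement, day-5 Average: compounds at 10 µM with ATP read daily over 5 days of treatment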
Method: In addition, cell death was scored by PI-imaging on day 2 and day 5 of treatment.
Applicants introduced molecules (at 10 uM final concentration) to WI-38 fibroblasts and then assayed cell viability (through ATP measurement) everyday, during a course of 5 days of continuous treatment. […] Applicants also examined the morphology and scored cell death (propidium iodide staining) for cells treated with the above molecules. Of these 14 molecules, some appeared to cause cell toxicity. […] Despite the observed long-term toxicity, these molecules are still interesting as they may act as anti-tumor agents in vivo, should they have more pronounced cytotoxicity on highly proliferative tumor cells. When cells were incubated with these molecules for ˜24 hrs and then subject to hydrogen peroxide for 3 hrs, these molecules are all protective. […] Some of these small molecules may be toxic by themselves under certain conditions, but by inducing protective mechanisms, they may trigger “hormesis” and therefore protect cells from oxidative stress.

[3] = system: phosphorylated γH2A.X and TP53BP1; assay: DNA damage marker analysis (immuno-staining)
Method: WI-38 cells were seeded on 96-well plates and cultured for 24 hrs and then incubated with small molecules for another 24 hrs. As the positive control to damage DNA, H2O2 was supplemented at 700 μM final concentration for the last 3 hrs. Cells were washed with phosphate-buffered saline (PBS), fixed with 4% paraformaldehyde and then blocked with 5% normal goat serum (Cell Signaling), plus 0.3% Triton X-100, for 1 hr. Primary antibody cocktail (rabbit anti-phospho-histone γH2A.X (Ser-139), 1:100; anti-phospho-TP53BP1 (Ser-1778), 1:100), prepared in 1% BSA and 0.3% Triton X-100/PBS, was then introduced and incubated overnight at 4 C. Next day, samples were washed with PBS and further incubated with fluorophore-conjugated secondary antibody (1:1,000) for 1 hr in the dark. Samples were then washed and incubated with DAPI dye (Life Technologies) (4 μg/ml final concentration) for the last 10 minutes. Images were collected on an INCell Analyzer 2000 (GE) and analyzed with the Developer software.
WI-38 cells were seeded (˜8,000 cells per well) on 96-well plates and cultured for 24 hrs and then incubated with small molecules for another 24 hrs. Doxorubicin (300 nM, 24 hrs) and H2O2 (700 μM, 3 hrs) were also introduced as the positive controls to damage DNA. Cells were washed with phosphate-buffered saline (PBS), fixed with 4% paraformaldehyde for 30 min and then blocked with 5% normal goat serum (Cell Signaling) and 0.3% Triton X-100 for 1 hr. Primary antibody cocktail (Cell Signaling, rabbit anti-phospho-histone γH2A.X (Ser-139), 1:100; anti-phospho-TP53BP1 (Ser-1778), 1:100) was prepared in PBS with 1% BSA and 0.3% Triton X-100 and incubated overnight at 4° C. Next day, samples were washed with PBS and further incubated with fluorophore-conjugated secondary antibody (1:1,000) for 1 hr in dark. Samples were then washed and incubated with DAPI dye (Life Technologies) (4 μg/ml final concentration) for 30 minutes. Images were collected on the INCell Analyzer 2000 (10× objective) and analyzed with the Developer Toolbox.

[4] = Batch 1, day-0 luminescence = 320956 ± 24708
[5] = Batch 2, day-0 luminescence = 229312 ± 17487

## COCCCN1Cc2cccc(C(N)=O)c2C1=O [O2]
WI-38 cells [1]
  EC50: 20 µM

## Nc1c(Cl)ncnc1NCCCn1ccnc1 [O31]
WI-38 cells [1]
  EC50: 10.6 µM

## CCCCCCc1cc(C=O)c(O)cc1O [O29]
WI-38 cells [1]
  EC50: 15.3 µM

## CC(C)CCOc1ccc(C(=O)C(CN2CCOCC2)c2ccccc2)cc1 (centres unmarked) [O30]
WI-38 cells [1]
  EC50: 4.2 µM

## Cc1cc(C)n(-c2nc(O)cc(-c3ccccc3)n2)n1 [O28]
WI-38 cells [1]
  EC50: 5.4 µM

## CO[C@H]1C[C@@H]2CC[C@@H](C)[C@@](O)(O2)C(=O)C(=O)N2CCCC[C@H]2C(=O)O[C@H]([C@H](C)C[C@@H]2CC[C@@H](O)[C@H](OC)C2)CC(=O)[C@H](C)/C=C(\C)[C@@H](O)[C@@H](OC)C(=O)[C@H](C)C[C@H](C)/C=C/C=C/C=C/1C [Rapa]
WI-38 cells [2]; [4]
  Luminescence signal for ATP measurement, day-1 Average: 454546
  Luminescence signal for ATP measurement, day-2 Average: 519403
  Luminescence signal for ATP measurement, day-3 Average: 545026
  Luminescence signal for ATP measurement, day-4 Average: 552160
  Luminescence signal for ATP measurement, day-5 Average: 547771
WI-38 cells [2]; Batch 1
  ATP luminescence by day-5 normalized: 53.3%
WI-38 cells [2]; [5]
  Luminescence signal for ATP measurement, day-1 Average: 239521
  Luminescence signal for ATP measurement, day-2 Average: 221640
  Luminescence signal for ATP measurement, day-3 Average: 244073
  Luminescence signal for ATP measurement, day-4 Average: 276911
  Luminescence signal for ATP measurement, day-5 Average: 262898
WI-38 cells [2]; Batch 2
  ATP luminescence by day-5 normalized: 47.3%

## Cc1ccc(C(=O)Nc2ccc3ccc4cccnc4c3n2)cc1 [Gr-3D]
WI-38 cells [1]
  EC50: 4.96 µM

## OO [H2O2, hydrogen peroxide, reference compound]
[3]
  TP53BP1-positive cells: ~45.8±5.1%
  γH2A.X-positive cells: ~50.9±4.2%
